# Laboratory results from PubChem BioAssay AID180 (DTP/NCI, 2004).
# Several values for one entry are separate records, joined by “and”; a condition that tells them apart may be missing. Identical values can stand only once.
# System: BDF1 mice, Adenocarcinoma 755 s.c., tumor weight T/C
# Test: NCI In Vivo Anticancer Drug Screen. Data for tumor model Adenocarcinoma 755 (subcutaneous) in B6D2F1 (BDF1) mice
# Conditions: endpoint: mean tumor weight, higher = larger tumour
# Summary of the method: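 Compound activity was tested in mice carrying transplanted tumors. Survival or tumor size was measured, and each value is the treated-group measurement divided by that of the vehicle-treated control group (T/C).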
# [1] = dose: 200.0 mg/kg/injection, schedule: Q01DX011 (sc), vehicle: steriod suspending solution
# [2] = dose: 31.0 mg/kg/injection, schedule: Q01DX011 (ip), vehicle: methylcellulose (MC)
# [3] = dose: 62.0 mg/kg/injection, schedule: Q01DX011 (ip), vehicle: methylcellulose (MC)
# [4] = dose: 125.0 mg/kg/injection, schedule: Q01DX011 (ip), vehicle: methylcellulose (MC)
smiles,measurement,setting,value
CCCCn1cnc2c(=S)nc[nH]c21,T/C,"dose: 2.5 mg/kg/injection, schedule: Q01DX011 (ip), vehicle: carboxymethylcellulose (CMC)",62 % of control
same,T/C,"dose: 5.0 mg/kg/injection, schedule: Q01DX011 (ip), vehicle: carboxymethylcellulose (CMC)",25 % of control
same,T/C,"dose: 5.0 mg/kg/injection, schedule: Q01DX011 (ip), vehicle: olive oil, sesame oil, peanut oil",41 % of control
same,T/C,"dose: 5.0 mg/kg/injection, schedule: Q#A X022 (ip), vehicle: carboxymethylcellulose (CMC)",4 % of control
same,T/C,"dose: 8.0 mg/kg/injection, schedule: Q01DX011 (ip), vehicle: carboxymethylcellulose (CMC)",32 % of control
same,T/C,"dose: 10.0 mg/kg/injection, schedule: Q01DX006 (iv), vehicle: carboxymethylcellulose (CMC)",20 % of control
same,T/C,"dose: 10.0 mg/kg/injection, schedule: Q01DX011 (im), vehicle: carboxymethylcellulose (CMC)",5 % of control
same,T/C,"dose: 10.0 mg/kg/injection, schedule: Q01DX011 (ip), vehicle: carboxymethylcellulose (CMC)",2 % of control
same,T/C,"dose: 10.0 mg/kg/injection, schedule: Q01DX011 (ip), vehicle: olive oil, sesame oil, peanut oil",14 % of control
same,T/C,"dose: 10.0 mg/kg/injection, schedule: Q#A X022 (ip), vehicle: carboxymethylcellulose (CMC)",1 % of control
same,T/C,"dose: 16.0 mg/kg/injection, schedule: Q01DX011 (ip), vehicle: carboxymethylcellulose (CMC)",8 % of control
same,T/C,"dose: 20.0 mg/kg/injection, schedule: Q01DX006 (iv), vehicle: carboxymethylcellulose (CMC)",6 % of control
same,T/C,"dose: 20.0 mg/kg/injection, schedule: Q01DX011 (im), vehicle: carboxymethylcellulose (CMC)",2 % of control
same,T/C,"dose: 20.0 mg/kg/injection, schedule: Q01DX011 (ip), vehicle: carboxymethylcellulose (CMC)",1 % of control
same,T/C,"dose: 20.0 mg/kg/injection, schedule: Q#A X022 (ip), vehicle: carboxymethylcellulose (CMC)",2 % of control
same,T/C,"dose: 25.0 mg/kg/injection, schedule: Q01DX011 (ip), vehicle: carboxymethylcellulose (CMC)",6 % of control
same,T/C,"dose: 27.0 mg/kg/injection, schedule: Q01DX001 (ip), vehicle: carboxymethylcellulose (CMC)",73 % of control
same,T/C,"dose: 32.0 mg/kg/injection, schedule: Q01DX011 (ip), vehicle: carboxymethylcellulose (CMC)",3 % of control
same,T/C,"dose: 40.0 mg/kg/injection, schedule: Q01DX006 (iv), vehicle: carboxymethylcellulose (CMC)",1 % of control
same,T/C,"dose: 40.0 mg/kg/injection, schedule: Q01DX011 (im), vehicle: carboxymethylcellulose (CMC)",2 % of control
same,T/C,"dose: 40.0 mg/kg/injection, schedule: Q#A X022 (ip), vehicle: carboxymethylcellulose (CMC)",1 % of control
same,T/C,"dose: 54.0 mg/kg/injection, schedule: Q01DX001 (ip), vehicle: carboxymethylcellulose (CMC)",59 % of control
same,T/C,"dose: 64.0 mg/kg/injection, schedule: Q01DX011 (ip), vehicle: carboxymethylcellulose (CMC)",3 % of control
same,T/C,"dose: 75.0 mg/kg/injection, schedule: Q01DX011 (ip), vehicle: carboxymethylcellulose (CMC)",4 % of control
same,T/C,"dose: 107.0 mg/kg/injection, schedule: Q01DX001 (ip), vehicle: carboxymethylcellulose (CMC)",8 % of control
same,T/C,"dose: 214.0 mg/kg/injection, schedule: Q01DX001 (ip), vehicle: carboxymethylcellulose (CMC)",5 % of control
OCC1OC(n2cnc3c(Br)ncnc32)C(O)C1O (centres undefined),T/C,"dose: 30.0 mg/kg/injection, schedule: Q01DX011 (ip), vehicle: carboxymethylcellulose (CMC)",74 % of control
same,T/C,"dose: 120.0 mg/kg/injection, schedule: Q01DX011 (ip), vehicle: carboxymethylcellulose (CMC)",63 % of control
same,T/C,"dose: 240.0 mg/kg/injection, schedule: Q01DX011 (ip), vehicle: carboxymethylcellulose (CMC)",49 % of control
O=[N+]([O-])c1ccc2ncccc2c1,T/C,"dose: 31.2 mg/kg/injection, schedule: Q01DX011 (ip), vehicle: other",83 % of control
same,T/C,"dose: 62.5 mg/kg/injection, schedule: Q01DX011 (ip), vehicle: other",52 % of control
S=c1nc[nH]c2c1ncn2C1CCCCCC1,T/C,"dose: 125.0 mg/kg/injection, schedule: Q01DX011 (ip), vehicle: carboxymethylcellulose (CMC)",65 % of control
same,T/C,"dose: 250.0 mg/kg/injection, schedule: Q01DX011 (ip), vehicle: carboxymethylcellulose (CMC)",88 % of control
same,T/C,"dose: 500.0 mg/kg/injection, schedule: Q01DX011 (ip), vehicle: carboxymethylcellulose (CMC)",87 % of control
CC(=O)[C@H]1CC[C@H]2[C@@H]3C[C@H](C)C4=CC(=O)CC[C@]4(C)[C@H]3[C@@H](O)C[C@]12C,T/C,"dose: 50.0 mg/kg/injection, schedule: Q01DX011 (sc), vehicle: steriod suspending solution",56 % of control and 63 % of control
same,T/C,"dose: 100.0 mg/kg/injection, schedule: Q01DX011 (sc), vehicle: steriod suspending solution",59 % of control and 60 % of control
same,T/C,[1],15 % of control and 34 % of control
Cc1cc2nc3c(=O)[nH]c(=O)nc-3n(CCOC(=O)CCC(=O)O)c2cc1C,T/C,"dose: 29.46 mg/kg/injection, schedule: Q01DX011 (ip), vehicle: carboxymethylcellulose (CMC)",88 % of control
same,T/C,"dose: 40.0 mg/kg/injection, schedule: Q01DX011 (ip), vehicle: carboxymethylcellulose (CMC)",91 % of control
same,T/C,"dose: 58.93 mg/kg/injection, schedule: Q01DX011 (ip), vehicle: carboxymethylcellulose (CMC)",94 % of control
same,T/C,"dose: 80.0 mg/kg/injection, schedule: Q01DX011 (ip), vehicle: carboxymethylcellulose (CMC)",122 % of control
same,T/C,"dose: 117.85 mg/kg/injection, schedule: Q01DX011 (ip), vehicle: carboxymethylcellulose (CMC)",93 % of control
same,T/C,"dose: 126.0 mg/kg/injection, schedule: Q01DX011 (ip), vehicle: carboxymethylcellulose (CMC)",107 % of control
same,T/C,"dose: 160.0 mg/kg/injection, schedule: Q01DX011 (ip), vehicle: carboxymethylcellulose (CMC)",59 % of control
same,T/C,"dose: 235.7 mg/kg/injection, schedule: Q01DX011 (ip), vehicle: carboxymethylcellulose (CMC)",90 % of control
same,T/C,"dose: 252.0 mg/kg/injection, schedule: Q01DX011 (ip), vehicle: carboxymethylcellulose (CMC)",115 % of control
Cn1cnc2c(ncn2C2CC(O)C(CO)O2)c1=N (centres undefined),T/C,"dose: 30.0 mg/kg/injection, schedule: Q01DX011 (ip), vehicle: saline",83 % of control
same,T/C,"dose: 60.0 mg/kg/injection, schedule: Q01DX011 (ip), vehicle: saline",100 % of control
same,T/C,"dose: 120.0 mg/kg/injection, schedule: Q01DX011 (ip), vehicle: saline",80 % of control
same,T/C,"dose: 240.0 mg/kg/injection, schedule: Q01DX011 (ip), vehicle: saline",108 % of control
O=C(O)c1cc(Cl)nc(Cl)n1,T/C,[2],92 % of control
same,T/C,[3],103 % of control
same,T/C,[4],105 % of control
CCCCNCC(C)C(=O)OC (centres undefined),T/C,"dose: 15.0 mg/kg/injection, schedule: Q01DX011 (ip), vehicle: methylcellulose (MC)",92 % of control
same,T/C,[2],93 % of control
same,T/C,[3],87 % of control
same,T/C,[4],104 % of control
same,T/C,"dose: 250.0 mg/kg/injection, schedule: Q01DX011 (ip), vehicle: methylcellulose (MC)",104 % of control
CCCC(=O)OCC1OC(n2cnc3c(=S)nc[nH]c32)C(OC(=O)CCC)C1OC(=O)CCC (centres undefined),T/C,"dose: 3.0 mg/kg/injection, schedule: Q01DX011 (ip), vehicle: other",48 % of control
same,T/C,"dose: 3.12 mg/kg/injection, schedule: Q01DX011 (ip), vehicle: other",75 % of control
same,T/C,"dose: 6.0 mg/kg/injection, schedule: Q01DX011 (ip), vehicle: other",16 % of control
same,T/C,"dose: 6.25 mg/kg/injection, schedule: Q01DX011 (ip), vehicle: other",13 % of control
same,T/C,"dose: 12.0 mg/kg/injection, schedule: Q01DX011 (ip), vehicle: other",6 % of control
same,T/C,"dose: 12.5 mg/kg/injection, schedule: Q01DX011 (ip), vehicle: other",4 % of control
CC1CN1P(=O)(N1CC2CCC(CC2)C1)N1CC1C (centres undefined),T/C,"dose: 7.0 mg/kg/injection, schedule: Q01DX011 (ip), vehicle: saline",109 % of control
same,T/C,"dose: 14.0 mg/kg/injection, schedule: Q01DX011 (ip), vehicle: saline",87 % of control
same,T/C,"dose: 28.0 mg/kg/injection, schedule: Q01DX011 (ip), vehicle: saline",87 % of control
CCCCN(C)N=Nc1ccc(OCC(=O)NN)cc1,T/C,"dose: 50.0 mg/kg/injection, schedule: Q01DX011 (ip), vehicle: carboxymethylcellulose (CMC)",75 % of control
CCC1/C=C/C=C/CC(C)C(O)C(C)(O)C(=O)C(C)C(O)C(C)C(=O)C(C)C(O)C(C)/C=C/C(=O)OC2C(C)C(CC1)OC1(OC(CC(C)O)C(C)CC1=O)C2C (centres undefined) (tested in a mixture with another compound),T/C,"dose: 1.0 mg/kg/injection, schedule: Q01DX011 (ip), vehicle: saline",68 % of control
same,T/C,"dose: 2.0 mg/kg/injection, schedule: Q01DX011 (ip), vehicle: saline",87 % of control
same,T/C,"dose: 4.0 mg/kg/injection, schedule: Q01DX011 (ip), vehicle: saline",61 % of control
C[C@]12C[C@H](O)[C@H]3[C@@H](CCC4=CC(=O)CC[C@@]43C)[C@@H]1CC[C@@H]2C(=O)CF,T/C,"dose: 25.0 mg/kg/injection, schedule: Q01DX011 (sc), vehicle: steriod suspending solution",121 % of control
same,T/C,[1],79 % of control
same,T/C,"dose: 400.0 mg/kg/injection, schedule: Q01DX011 (sc), vehicle: steriod suspending solution",79 % of control
